Consider 8 molecules from ChEMBL document CHEMBL1201862, “PubChem BioAssay data set” (2004).

Activity calls are given as the source filed them.

For assay [1], the target named is E3 ubiquitin-protein ligase Mdm2 (Homo sapiens, UniProt Q00987). The experiment in a line: MDM2-luc reporter signal enhancers, multi-concentration potency testing, MDM2 ubiquitin-protein ligase inhibitor program, whole-cell format, luminescence detection, 384-well microplate (AID 1394).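 Also: MDM2 E3 inhibitors raise luminescence so EC50 is for signal enhancement.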 The class given is functional.
The target of another assay is T1, Protein RecA (Mycobacterium tuberculosis, UniProt P9WHJ3).
T1 sequence (P9WHJ3 whole entry): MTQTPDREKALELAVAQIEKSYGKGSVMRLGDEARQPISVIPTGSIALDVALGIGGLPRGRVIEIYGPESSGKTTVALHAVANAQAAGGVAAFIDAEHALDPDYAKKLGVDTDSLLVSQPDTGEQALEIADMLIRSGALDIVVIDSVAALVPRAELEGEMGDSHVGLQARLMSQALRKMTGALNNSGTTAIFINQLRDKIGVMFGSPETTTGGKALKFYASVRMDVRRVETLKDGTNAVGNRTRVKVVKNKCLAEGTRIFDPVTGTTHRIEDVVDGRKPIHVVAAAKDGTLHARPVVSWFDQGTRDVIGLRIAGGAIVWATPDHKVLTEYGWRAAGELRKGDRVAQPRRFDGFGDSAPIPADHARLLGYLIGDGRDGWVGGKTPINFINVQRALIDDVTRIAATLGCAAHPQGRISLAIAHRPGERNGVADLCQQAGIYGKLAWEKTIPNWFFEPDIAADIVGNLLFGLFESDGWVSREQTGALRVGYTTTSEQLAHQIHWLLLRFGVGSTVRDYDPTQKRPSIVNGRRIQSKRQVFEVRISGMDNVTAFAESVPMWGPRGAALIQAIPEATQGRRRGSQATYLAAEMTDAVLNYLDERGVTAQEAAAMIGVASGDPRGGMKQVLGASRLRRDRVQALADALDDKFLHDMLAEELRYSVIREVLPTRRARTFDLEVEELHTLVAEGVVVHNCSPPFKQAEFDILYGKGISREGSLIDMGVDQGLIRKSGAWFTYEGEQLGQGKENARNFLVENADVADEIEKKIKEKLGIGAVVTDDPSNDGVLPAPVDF
As to the kind of experiment: Fluorescence Cell-Free Homogeneous Dose Retest to Identify Inhibitors of RecA-Intein Splicing Activity. [Related pubchem assays (depositor defined):AID2097, AID2223, AID489010, AID492950]. It counts as functional.

Assay [2] deals with T2, Replicative DNA helicase DnaB (Mycobacterium tuberculosis, UniProt P9WMR3).
T2 sequence (P9WMR3 whole entry): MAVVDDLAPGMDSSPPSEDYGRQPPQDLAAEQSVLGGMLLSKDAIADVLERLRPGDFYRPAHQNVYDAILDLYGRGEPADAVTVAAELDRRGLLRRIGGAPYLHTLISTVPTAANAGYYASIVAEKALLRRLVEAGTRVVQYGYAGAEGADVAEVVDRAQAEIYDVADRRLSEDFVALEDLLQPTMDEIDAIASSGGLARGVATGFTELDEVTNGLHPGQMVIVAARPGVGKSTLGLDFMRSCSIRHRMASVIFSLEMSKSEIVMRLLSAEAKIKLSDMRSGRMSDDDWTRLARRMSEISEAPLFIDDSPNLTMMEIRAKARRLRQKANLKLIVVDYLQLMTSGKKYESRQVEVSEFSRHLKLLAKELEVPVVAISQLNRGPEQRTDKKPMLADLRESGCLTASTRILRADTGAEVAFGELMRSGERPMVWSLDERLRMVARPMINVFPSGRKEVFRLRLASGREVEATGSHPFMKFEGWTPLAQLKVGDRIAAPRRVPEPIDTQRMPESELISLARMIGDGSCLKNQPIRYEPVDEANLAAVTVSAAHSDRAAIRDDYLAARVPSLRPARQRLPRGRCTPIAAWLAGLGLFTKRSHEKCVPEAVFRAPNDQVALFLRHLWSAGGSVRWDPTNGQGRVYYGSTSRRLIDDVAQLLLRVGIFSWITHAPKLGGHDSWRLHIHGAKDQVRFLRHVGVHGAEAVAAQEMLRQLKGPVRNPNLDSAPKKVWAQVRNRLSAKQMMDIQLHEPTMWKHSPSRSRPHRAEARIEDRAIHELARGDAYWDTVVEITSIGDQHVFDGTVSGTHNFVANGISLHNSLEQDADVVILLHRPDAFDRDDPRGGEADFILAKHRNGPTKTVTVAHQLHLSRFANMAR
As to the kind of experiment: DnaB intein splicing inhibitors, dose response, biochemical, cell-free fluorescence (AID 449749). The class given is functional.

The target of another assay is Transthyretin (Homo sapiens, UniProt P02766). As to the kind of experiment: Luminescence-based cell-based high throughput dose response assay to identify activators of Transthyretin (TTR) transcription. The class given is functional.
Assay [3] deals with T3, Bcl-2-related protein A1 (Mus musculus, UniProt Q07440).
T3 sequence (Q07440 whole entry): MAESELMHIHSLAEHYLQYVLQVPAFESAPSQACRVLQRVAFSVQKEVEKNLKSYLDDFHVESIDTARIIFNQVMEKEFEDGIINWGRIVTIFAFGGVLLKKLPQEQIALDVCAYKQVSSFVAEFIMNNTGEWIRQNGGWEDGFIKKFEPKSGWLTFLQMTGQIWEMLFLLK
As to the kind of experiment: displacement of Bid BH3 peptide from Bfl-1 – biochemical, fluorescence polarization, FITC-Bid, mouse, primary screen (AID 432). A general note: Fluorescence polarisation rises when a labelled molecule tumbles more slowly, as on binding a larger partner.

In assay [4] the target is T3, Bcl-2-related protein A1. As to the kind of experiment: small-molecule antagonists of Bfl-1/BH3 interaction – biochemical, TR-FRET, mouse Bfl-1, confirmation (AID 621).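 Also: TR-FRET binding of GST-Bfl-1 to FITC-labelled Bid peptide via terbium antibody.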 For orientation: In TR-FRET formats the signal depends on donor and acceptor labels being close together.
For assay [5], the target named is Heat shock protein HSP 90-alpha (Homo sapiens, UniProt P07900). As to the kind of experiment: Luminescence-based dose response biochemical high throughput screening assay for inhibitors of the Heat Shock Protein 90 (HSP90). [Related pubchem assays: 1831 (Summary AID.), 1846 (Confirmation screen.), 1789 (Primary screen.)].
The nature of assay [6]: cells. The class given is functional.
A short description of assay [7]: viability loss in human Jurkat cells – cell-based, luminescence, cytotoxicity control for P. falciparum gametocyte viability project, dose response (AID 1117277).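 Also: potency reflects loss of cellular ATP meaning fewer viable cells.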 The class given is functional.
Assay [8] can be described thus: viability inhibitors of stage V gametocytes – luminescence, dose response (AID 1117278).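 Also: gametocytes exposed to compound for 24 hours.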 It counts as functional, cell-based.
Assay [9] deals with T4, Fatty acid synthase (Homo sapiens, UniProt P49327). As to the kind of experiment: inhibition of human FAS-TE enzyme activity – biochemical, endpoint fluorescence intensity, uHTS hits, dose response (AID 624327).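 Also: fluorescence from hydrolysis of an O-methyl fluorescein acyl ester substrate by the enzyme.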 The class given is functional.
Assay [10] is described as follows: cells. It counts as functional, cell-based.
Assay [11] concerns the target T4, Fatty acid synthase. As to the kind of experiment: inhibition of human FAS-TE enzyme activity – biochemical, kinetic fluorescence intensity, dose response (AID 624326).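 Also: rate of fluorescence rise from hydrolysis of a fluorogenic O-methyl fluorescein ester substrate.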 The class given is functional.
Assay [12] can be described thus: cells. It counts as functional, cell-based. This is another data set of the same source.
Assay [13] is described as follows: viability loss in HEK293 cells – cell-based, plate reader, cherry-picked samples, cytotoxicity control, dose response (AID 743446). It counts as functional.
In a further assay the target is Paired box protein Pax-8 (Homo sapiens, UniProt Q06710). As to the kind of experiment: PAX8 transcriptional activity inhibition in RMG-I – RMG-I cells, luciferase, cherry-pick, dose response (AID 687027).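 Also: luciferase reporter driven by Pax8 target thyroperoxidase promoter measured by SteadyGlo luminescence.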 The class given is functional, cell-based.
Assay [14] relates to BJ. The experiment in a line: cells. It counts as functional, cell-based. The conditions noted are these: Homo sapiens.
Assay [15] relates to BJ. As to the kind of experiment: BJ-TERT fibroblast viability loss – cell-based, RAS-independent, luminescence, dose response (AID 1933). The class given is functional. The conditions noted are these: Homo sapiens.
Assay [16] can be described thus: loss of viability in HepG2 cells – cell-based, CellTiter-Glo, cherry-picked, cytotoxicity control for Shn3 inhibitor project, dose response (AID 624134). The class given is functional. A general note: In ATP-based viability assays light output follows the ATP content of the culture.
Assay [17] in a line: blockade of melanocortin 4 receptor signaling – cell-based, plate reader, cherry pick, counter-screen for LGR2 antagonist project, dose response (AID 743444).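 Also: transfected HEK 293 cells stimulated with alpha-MSH peptide; potency of inhibitors of the alpha-MSH evoked signal.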 It counts as functional.
For assay [18], the system named is BJ. As to the kind of experiment: growth inhibition of engineered Ras-driven BJ cells – cell-based, alamar blue fluorescence, cherrypicked samples, dose response (AID 2631).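 Also: confirmatory dose-response assay in RAS-dependent BJ fibroblasts engineered with TERT, LT and ST, with cytotoxicity read by fluorescence.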 The class given is functional. The conditions noted are these: Homo sapiens.
Assay [19] is described as follows: blockers of bursicon-stimulated LGR2 cAMP reporter – cell-based, HEK293, CRE-luciferase reporter, cherry pick, set 2, dose response (AID 743343).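 Also: transfected cells were stimulated with diluted bursicon conditioned medium after compound addition.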 It counts as functional.
Assay [20] can be described thus: general cell-killing toxicity readout – plate reader, dry powder samples, cytotoxicity control for PAX8 inhibitor project, dose response (AID 743021). The class given is functional, cell-based.
The nature of assay [21]: toxicity toward HepG2 liver cells – cell-based, plate reader, cherry-pick, antagonist series, cytotoxicity control, dose response (AID 743416). It counts as functional.
Assay [22] is described as follows: DRD fibroblast viability loss – cell-based, non-viral oncogenic, luminescence, dose response (AID 1934). The class given is functional. Particulars: Homo sapiens.
Assay [23] can be described thus: reduction of Shn3 3'UTR-driven luciferase in osteoblasts – cell-based, Clone20 osteoblasts, firefly luciferase, cherry-picked, dose response (AID 624132).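 Also: firefly luciferase luminescence from reporter carrying the Shn3 3'UTR in osteoblasts.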 It counts as functional.
A short description of assay [24]: Luminescence Cell-Based Dose Confirmation HTS to Identify Inhibitors of Platelet Dense Granule Release. [Related pubchem assays: 1663 (Primary HTS), 1678 (Summary of Project)]. It counts as functional.
Assay [25] can be described thus: A549 cell cytotoxicity, dose response, cytotoxicity control, plate reader, cherry-pick, antagonist series (AID 743412). The class given is functional, cell-based.
Assay [26] has as its target Luciferin 4-monooxygenase (Photinus pyralis, UniProt P08659). As to the kind of experiment: inhibition of purified Photinus pyralis luciferase – biochemical, luminescence, dose response (AID 1891).
Assay [27] can be described thus: non-specific 3'UTR reporter inhibition in Clone20-Shn3RL – cell-based, Renilla luciferase, cherry-picked, counter-screen for Shn3 inhibitor project, dose response (AID 624133). It counts as functional.
The test system of assay [28] is BJ. As to the kind of experiment: BJ-TERT-LT-ST fibroblast viability loss – cell-based, RAS-independent, luminescence, dose response (AID 1935).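 Also: BJ fibroblasts immortalized with TERT plus LT and ST oncogenes.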 Particulars: Homo sapiens. It counts as functional.
The target of assay [29] is Voltage-gated inwardly rectifying potassium channel KCNH2 (Homo sapiens, UniProt Q12809). The experiment in a line: concentration-dependent hERG rescue from blockers – cell-based, thallium flux, dose response (AID 2121). It counts as ADME.
Voltage-gated inwardly rectifying potassium channel KCNH2, sequence (Q12809 whole entry): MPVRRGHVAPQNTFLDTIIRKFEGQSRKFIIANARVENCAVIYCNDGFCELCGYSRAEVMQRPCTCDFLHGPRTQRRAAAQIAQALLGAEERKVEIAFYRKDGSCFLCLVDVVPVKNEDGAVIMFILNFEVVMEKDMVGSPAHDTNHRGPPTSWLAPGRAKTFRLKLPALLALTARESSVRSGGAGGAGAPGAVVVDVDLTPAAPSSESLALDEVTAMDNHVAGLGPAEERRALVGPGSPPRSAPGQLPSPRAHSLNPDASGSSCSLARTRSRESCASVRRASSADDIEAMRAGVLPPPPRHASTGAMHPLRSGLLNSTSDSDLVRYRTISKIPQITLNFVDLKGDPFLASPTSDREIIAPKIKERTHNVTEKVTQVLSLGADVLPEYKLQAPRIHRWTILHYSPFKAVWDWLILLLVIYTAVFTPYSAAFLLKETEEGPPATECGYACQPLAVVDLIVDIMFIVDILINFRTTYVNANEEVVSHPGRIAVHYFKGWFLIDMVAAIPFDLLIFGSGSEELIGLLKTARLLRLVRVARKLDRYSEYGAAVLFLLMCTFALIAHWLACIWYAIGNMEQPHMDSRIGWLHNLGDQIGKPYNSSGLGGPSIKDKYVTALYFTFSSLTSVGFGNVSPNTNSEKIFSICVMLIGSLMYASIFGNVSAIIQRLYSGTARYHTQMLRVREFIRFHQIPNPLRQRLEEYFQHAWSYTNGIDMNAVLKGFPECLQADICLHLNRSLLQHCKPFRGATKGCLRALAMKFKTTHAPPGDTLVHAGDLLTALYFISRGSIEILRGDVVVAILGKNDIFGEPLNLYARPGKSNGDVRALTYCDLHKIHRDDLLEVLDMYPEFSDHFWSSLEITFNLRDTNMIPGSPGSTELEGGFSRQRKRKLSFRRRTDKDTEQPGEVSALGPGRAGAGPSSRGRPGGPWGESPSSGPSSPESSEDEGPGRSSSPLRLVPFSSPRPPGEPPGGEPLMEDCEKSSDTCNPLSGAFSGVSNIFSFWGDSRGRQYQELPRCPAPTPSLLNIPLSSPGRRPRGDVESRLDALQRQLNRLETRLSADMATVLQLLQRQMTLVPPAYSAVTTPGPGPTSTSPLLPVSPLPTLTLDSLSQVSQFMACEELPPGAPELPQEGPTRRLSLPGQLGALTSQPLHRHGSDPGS

E3 ubiquitin-protein ligase Mdm2, sequence (Q00987 whole entry): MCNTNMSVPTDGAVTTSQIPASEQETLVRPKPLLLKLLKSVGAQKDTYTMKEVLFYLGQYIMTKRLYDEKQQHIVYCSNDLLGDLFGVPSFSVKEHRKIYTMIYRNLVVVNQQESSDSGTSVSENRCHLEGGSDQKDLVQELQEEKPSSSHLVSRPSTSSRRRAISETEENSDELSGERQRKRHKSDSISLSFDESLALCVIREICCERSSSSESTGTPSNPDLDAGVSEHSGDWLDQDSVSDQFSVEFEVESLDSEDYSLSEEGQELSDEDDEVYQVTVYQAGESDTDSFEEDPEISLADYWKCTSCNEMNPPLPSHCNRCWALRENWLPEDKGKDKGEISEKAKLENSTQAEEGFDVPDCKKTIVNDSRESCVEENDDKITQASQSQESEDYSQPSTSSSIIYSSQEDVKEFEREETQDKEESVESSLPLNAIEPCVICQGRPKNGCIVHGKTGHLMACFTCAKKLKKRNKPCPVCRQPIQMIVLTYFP
T4 sequence (P49327 whole entry): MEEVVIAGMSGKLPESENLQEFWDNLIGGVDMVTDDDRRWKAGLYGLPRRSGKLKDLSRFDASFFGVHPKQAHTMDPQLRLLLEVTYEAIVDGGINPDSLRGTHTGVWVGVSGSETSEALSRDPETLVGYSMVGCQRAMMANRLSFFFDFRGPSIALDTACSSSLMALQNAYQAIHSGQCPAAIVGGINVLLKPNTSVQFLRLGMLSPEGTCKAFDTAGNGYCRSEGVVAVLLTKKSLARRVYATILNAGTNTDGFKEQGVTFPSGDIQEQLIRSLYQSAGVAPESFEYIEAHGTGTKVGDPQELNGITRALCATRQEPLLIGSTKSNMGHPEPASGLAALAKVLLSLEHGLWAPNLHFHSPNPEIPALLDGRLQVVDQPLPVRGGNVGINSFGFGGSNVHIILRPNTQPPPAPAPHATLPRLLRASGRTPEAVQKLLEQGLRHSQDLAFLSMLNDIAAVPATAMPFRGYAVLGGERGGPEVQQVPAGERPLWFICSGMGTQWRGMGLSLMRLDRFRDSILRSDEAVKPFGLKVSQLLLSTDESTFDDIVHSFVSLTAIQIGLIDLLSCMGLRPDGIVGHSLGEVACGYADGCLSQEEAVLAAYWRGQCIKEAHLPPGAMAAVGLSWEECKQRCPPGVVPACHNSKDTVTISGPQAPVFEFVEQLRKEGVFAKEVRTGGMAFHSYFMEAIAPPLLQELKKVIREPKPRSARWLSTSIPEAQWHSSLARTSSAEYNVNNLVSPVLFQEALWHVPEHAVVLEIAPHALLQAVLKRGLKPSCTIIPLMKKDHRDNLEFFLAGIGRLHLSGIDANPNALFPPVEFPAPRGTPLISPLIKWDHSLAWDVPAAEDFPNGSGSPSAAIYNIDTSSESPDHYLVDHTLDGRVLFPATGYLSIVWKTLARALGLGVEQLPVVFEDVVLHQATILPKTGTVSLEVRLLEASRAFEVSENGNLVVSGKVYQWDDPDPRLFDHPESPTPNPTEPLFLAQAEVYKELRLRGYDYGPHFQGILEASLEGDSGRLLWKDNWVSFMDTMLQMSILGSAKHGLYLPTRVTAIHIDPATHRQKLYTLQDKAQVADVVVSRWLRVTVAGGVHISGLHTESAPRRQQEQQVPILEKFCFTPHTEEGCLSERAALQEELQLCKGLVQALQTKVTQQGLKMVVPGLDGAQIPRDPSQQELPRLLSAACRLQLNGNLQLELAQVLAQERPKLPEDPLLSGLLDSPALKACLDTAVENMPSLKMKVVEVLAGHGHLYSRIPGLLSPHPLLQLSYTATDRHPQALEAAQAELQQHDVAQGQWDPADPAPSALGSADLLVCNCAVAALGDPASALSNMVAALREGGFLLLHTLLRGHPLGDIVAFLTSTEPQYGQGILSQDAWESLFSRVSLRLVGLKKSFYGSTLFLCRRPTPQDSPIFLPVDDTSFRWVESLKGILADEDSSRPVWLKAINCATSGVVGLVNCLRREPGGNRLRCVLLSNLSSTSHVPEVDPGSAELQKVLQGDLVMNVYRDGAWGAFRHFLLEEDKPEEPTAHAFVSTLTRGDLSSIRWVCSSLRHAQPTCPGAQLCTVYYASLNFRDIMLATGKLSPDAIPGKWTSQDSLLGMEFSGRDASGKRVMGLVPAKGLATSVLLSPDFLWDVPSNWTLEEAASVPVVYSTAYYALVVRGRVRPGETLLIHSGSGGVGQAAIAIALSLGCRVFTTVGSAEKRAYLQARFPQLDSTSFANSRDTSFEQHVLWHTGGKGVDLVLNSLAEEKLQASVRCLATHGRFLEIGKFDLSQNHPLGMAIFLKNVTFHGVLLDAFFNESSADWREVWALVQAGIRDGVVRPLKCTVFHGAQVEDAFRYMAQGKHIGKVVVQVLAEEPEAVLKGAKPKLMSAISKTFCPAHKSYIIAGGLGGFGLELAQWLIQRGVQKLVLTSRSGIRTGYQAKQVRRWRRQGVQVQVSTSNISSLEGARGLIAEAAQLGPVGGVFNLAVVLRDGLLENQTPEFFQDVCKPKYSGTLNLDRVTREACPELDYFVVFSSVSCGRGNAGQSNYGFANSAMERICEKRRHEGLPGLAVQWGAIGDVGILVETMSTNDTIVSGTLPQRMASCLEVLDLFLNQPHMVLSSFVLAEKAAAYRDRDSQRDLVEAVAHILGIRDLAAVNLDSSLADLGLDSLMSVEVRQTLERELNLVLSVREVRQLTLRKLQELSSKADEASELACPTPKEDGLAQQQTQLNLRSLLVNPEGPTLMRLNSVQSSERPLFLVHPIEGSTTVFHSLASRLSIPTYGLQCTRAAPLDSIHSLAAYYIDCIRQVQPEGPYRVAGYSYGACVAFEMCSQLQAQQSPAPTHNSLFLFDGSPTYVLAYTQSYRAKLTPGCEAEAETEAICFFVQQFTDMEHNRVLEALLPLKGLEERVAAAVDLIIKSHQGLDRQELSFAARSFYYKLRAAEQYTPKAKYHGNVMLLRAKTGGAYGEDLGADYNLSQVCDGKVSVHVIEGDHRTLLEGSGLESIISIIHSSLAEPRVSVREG
Paired box protein Pax-8, sequence (Q06710 whole entry): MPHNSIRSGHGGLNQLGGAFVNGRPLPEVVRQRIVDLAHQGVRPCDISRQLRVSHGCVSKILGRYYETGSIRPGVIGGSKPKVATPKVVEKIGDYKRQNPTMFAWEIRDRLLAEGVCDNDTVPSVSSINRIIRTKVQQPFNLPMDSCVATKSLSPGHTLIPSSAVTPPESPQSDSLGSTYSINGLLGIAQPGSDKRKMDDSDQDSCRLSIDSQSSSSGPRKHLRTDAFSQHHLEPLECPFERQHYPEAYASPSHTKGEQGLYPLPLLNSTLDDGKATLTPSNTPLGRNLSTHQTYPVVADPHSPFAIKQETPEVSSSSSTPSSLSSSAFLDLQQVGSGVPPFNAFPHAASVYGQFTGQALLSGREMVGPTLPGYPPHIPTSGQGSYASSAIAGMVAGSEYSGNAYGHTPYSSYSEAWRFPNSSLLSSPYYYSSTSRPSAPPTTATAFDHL

The term EC50 denotes the concentration that produces a half-maximal response. Turning to `CC(=O)Nc1ccc(S(=O)(=O)N2CCN=C2SCc2cccnc2)cc1`, the EC50 in [1] is 9.39 µM (not active).
Usually AC50 stands for the midpoint of the concentration-response curve, whichever way the signal moves. In the case of `COc1ccc2[nH]c3c(Cl)ncnc3c2c1`, the EC50 is > 380 µM (inactive) on Protein RecA and > 167 µM (inactive) at Transthyretin. The AC50 in [2] was > 380 µM (inactive).
As usually defined, the IC50 is the concentration that gives 50% inhibition. For `Cc1nn(C)c(C)c1NC(=O)CSc1nc(-c2ccccc2F)nc2c1cnn2-c1ccccc1`, the IC50 on Bcl-2-related protein A1 [3] and against Bcl-2-related protein A1 [4] was > 100 µM (not active) each time.
`CCOC(=O)c1csc(COc2ccc(OC)cc2)n1`: the IC50 in assay [5] was 8.03 µM (active); in the assay “cells [6]”, 47.7 µM (active).
Turning to `NC(=O)C1CCN(C(=O)CN2CCc3ccccc32)CC1`, the IC50 is > 83.3 µM (inactive) in [7] and > 109 µM (inactive) in assay [8].
For `COCCn1/c(=N/C(=O)c2ccc(S(=O)(=O)N3CCCc4ccccc43)cc2)sc2cc(S(C)(=O)=O)ccc21`, the results for the IC50 on Fatty acid synthase [9] and on Fatty acid synthase [11] were 45.9 µM (inactive) and 64.5 µM (inactive), respectively. The EC50 was > 350 µM (not active) in the assay “cells [10]”, 1.03 µM (not active) in [1] and 298 µM (active) in “cells [12]”.
Take `O=c1c2ccccc2cnn1-c1nc2ccccc2[nH]1`: the concentration at half-maximal activity (AC50) is 2.23 µM (active) in assay [13]; 1.65 µM (active) on Paired box protein Pax-8; 12.1 µM (active) in assay [16]; 0.288 µM (active) in [17]; 0.275 µM (active) in [19]; 3.39 µM (active) in [20]. Further, the AC50 in assay [21] was 8.61 µM (active); in [23], 1.33 µM (active); in assay [25] it was 2.6 µM (active); in assay [27] it was 27.2 µM (active). The concentration giving a half-maximal response (EC50) is 4.94 µM (active) in the assay on BJ [14]; 5.15 µM (active) in the assay with BJ [15]; > 133 µM (inactive) with BJ [18]; 5.22 µM (active) in assay [22]; 0.144 µM (active) in [24]; 1.16 µM (active) in assay [26]. Further, the EC50 with BJ [28] was 4.79 µM (active). The concentration for half-maximal inhibition (IC50) was 3.98 µM (active) in assay [7] and 15.2 µM (inactive) in [8].
Take `COc1ccc(C(=O)NNC(=O)C(=O)Nc2ccc(C)c(Cl)c2)cc1`: in assay [29], the half-maximal effective concentration (EC50) was 0.06 µM (active).
